Source: US20220273660A1, “MEK INHIBITOR FOR TREATMENT OF STROKE” (EDVINCE AB, priority 2019, published 2022)
Entries after “also recorded” stand apart in the source; their conditions may differ.

Assays:
[1] = tested on: rat subarachnoid haemorrhage model; assay: Rat SAH model, intraperitoneal treatment, myograph of basilar arteries; type: in vivo; conditions: SAH + i.p. treatment at 6 and 24 hours
Method: For contractility measurements, both incubated BAs (ex vivo) and BAs after surgical procedure (in vivo) were cut into segments and mounted on a pair of metal wires (40 μm) in a myograph bath. The arteries from OC were mounted the same way after 48 hours in media. One wire was attached to a micro-meter screw which allows for fine adjustments of the distance between the wires, controlling the vascular tone.
The segments were equilibrated in physiological buffer aerated with 95% O2/5% CO2, pH of 7.4, temperature set at 37° C. and the wires were separated for isometric pretension at 2 Nm^−1. The arterial segments were exposed two or three times with 60 mM K^+, by exchanging the buffer with a 60 mM K^+ buffer solution. To maintain equal osmolarity, a proportional amount of Na^+ had been removed from the buffer. An absolute cut-off was set at 2.0 mN K^+max for inclusion of arterial segments from rats that underwent the surgical procedure. Endothelium function was evaluated with the addition of 5-HT (3.10^−7 M) followed by carbachol (10^−5 M). For arteries from the OC the protocol was as followed: first a cumulative concentration-response curve to sarafotoxin 6C (S6c, 10^−14-10^−7 M), followed by a concentration-response curve to endothelin-1 (ET-1, 10^−14-10^−7 M). […]

[2] = tested on: ETB receptor; assay: Intracellular flow cytometry of SMC expressing ETB receptor after SAH; type: in vivo, rat; conditions: i.p. at 6 and 24 h post-SAH
Method: The MCAs, BA and the circle of Willis were pooled from one rat. The VSMCs of the cerebral arteries was isolated by a novel technique advanced by the present inventors based on two other protocols (Navone et al, 2013, Nat Protoc; van Beijnum et al, 2008, Nat Protoc). The tissue were disrupted mechanically (scalpel) and then subjected to enzymatic digestion with highly purified Collagenase I and Collagenase II. Isolated cell suspensions were fixed with 4% paraformaldehyde for 30 minutes, washed with PBS and thereafter permeabilized with 0.25% TritonX-100. Cells were resuspended in blocking buffer containing 5% donkey serum and double-stained overnight at 4° C. with primary goat anti-SM22α (1:100, Abcam) or goat isotope control IgG (5 μg/mL, Abcam) and primary antibody rabbit anti-ETB (1:100, Abcam) or rabbit isotope control IgG (10 μg/mL, Abcam) in the same blocking buffer. […] Finally, cell suspensions were diluted to a final volume of 0.5 mL with PBS before analyzed by fluorescent-activated cell sorting (FACS) on the BD FACSVerse machine (BD Biosciences, USA). Fluorescence was induced with a 640 nm red laser. The ratio of SM22α-positive cells expressing ETB was calculated in each sample. Data was analyzed by the BD FACSuite Software.

[3] = tested on: rat middle cerebral arteries (ETB receptor); assay: 48 h in vitro organ culture of MCAs, wire myography (S6c, ET-1); type: cell-based
Method: MCAs from naïve rats were dissected and segments (1.5 mm) were incubated for 48 h in Dulbecco's modified Eagle's medium contained L-glutamine (584 mg/L) supplemented with penicillin (100 U/ml) and streptomycin ([…]) at humidified 5% CO2 atmosphere. Before incubation, 4 different concentrations of trametinib (5 μM, 1 μM, 0.1 μM or 0.03 μM), dissolved in 0.1% dimethyl sulfoxide (DMSO) in NaCl, or 0.1% DMSO in NaCl (vehicle) was added.

CC(=O)Nc1cccc(-n2c(=O)n(C3CC3)c(=O)c3c(Nc4ccc(I)cc4F)n(C)c(=O)c(C)c32)c1 [trametinib]
ET-1 contractility (at 10^-9.5 M) vs SAH+i.p. vehicle [1]: significant decrease in contractility | contractile response of BAs to 60 mM K+ [1]: 3.03±0.19 Nm-1 | increased ETB receptor protein expression in SMC [2]: not significant abolished | increased ET-1-induced vasoconstriction of MCAs ([3]; 0.1 μM, 48 h OC): total blockage of the ETB receptor subtype response; also recorded: significantly inhibit; also recorded: inhibitory effect | S6c-induced contraction of MCAs ([3]; 48 h OC, 5, 1, 0.1 or 0.03 μM, concentration-dependent): significantly inhibited
